Among the data in ChEMBL document CHEMBL6114953, “De novo discovery of cyclic peptide inhibitors of IL-11 signaling” (Bioorg Med Chem, 2025) are Activity, Ki and Kd values, retold here.

One assay is filed under the species Homo sapiens. As to the kind of experiment: Binding affinity to CAP chip-immobilized IL-6R (unknown origin) by SPR analysis.
Assay [1] is described as follows: Binding affinity to CAP chip-immobilized IL-6 (unknown origin) by SPR analysis. The note with it: Homo sapiens.
In assay [2] the target is T1, Interleukin-11 receptor subunit alpha (Homo sapiens) (UniProt Q14626).
T1 sequence (whole entry): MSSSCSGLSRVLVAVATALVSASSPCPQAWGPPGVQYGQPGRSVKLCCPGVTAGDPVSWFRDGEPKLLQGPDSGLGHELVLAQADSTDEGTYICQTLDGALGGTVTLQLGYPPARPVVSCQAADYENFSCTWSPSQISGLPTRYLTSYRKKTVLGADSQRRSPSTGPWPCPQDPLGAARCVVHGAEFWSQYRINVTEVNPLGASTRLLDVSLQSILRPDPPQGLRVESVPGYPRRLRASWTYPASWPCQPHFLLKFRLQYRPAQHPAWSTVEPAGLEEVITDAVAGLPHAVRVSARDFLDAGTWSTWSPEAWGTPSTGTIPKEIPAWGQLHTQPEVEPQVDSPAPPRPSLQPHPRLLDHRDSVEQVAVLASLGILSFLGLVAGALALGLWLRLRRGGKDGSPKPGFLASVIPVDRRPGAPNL
The experiment in a line: Binding affinity to CAP chip-immobilized biotinylated recombinant human IL-11Ralpha by SPR analysis.

Assay [3] can be described thus: Inhibition of his-tagged recombinant human IL-11 (22 to 199 residues) expressed in HEK293 cells/biotinylated recombinant human IL-11Ralpha (24 to 370 residues) expressed in HEK293 cells incubated for 1 hr by AlphaLISA assay. Format: cell-based.
Assay [4] concerns the target T2, Interleukin-11 (Homo sapiens) (UniProt P20809).
T2 sequence (whole entry): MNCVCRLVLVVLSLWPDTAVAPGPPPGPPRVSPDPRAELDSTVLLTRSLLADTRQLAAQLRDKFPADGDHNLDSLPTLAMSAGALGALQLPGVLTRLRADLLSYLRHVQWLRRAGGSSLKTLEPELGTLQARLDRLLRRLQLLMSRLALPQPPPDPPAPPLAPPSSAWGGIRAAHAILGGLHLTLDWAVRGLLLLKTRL
As to the kind of experiment: Binding affinity to CAP chip-immobilized IL-11 (unknown origin) by SPR analysis.

Another assay deals with T3, Interleukin-11 (Homo sapiens, UniProt P20809).
T3 sequence (P20809 whole entry): T2 sequence (whole entry)
As to the kind of experiment: Binding affinity to CAP chip-immobilized IL-11 (unknown origin) assessed as dissociation constant by SPR analysis.

Active and inactive are the calls of the source. The calls are words filed in the database; no cut-off is given here. Where a SMILES comes first, the peptide text is derived from it. Bridges are numbered along the chain shown (N, C = ends). [ ]: non-standard residue; d: D form. Met(O) = CS(=O)CC[C@H](N)C(=O)O; Nle = CCCC[C@H](N)C(=O)O

With `Cc1c(-c2ccc(O)cc2)n(Cc2ccc(OCCN3CCCCCC3)cc2)c2ccc(O)cc12` [BAZEDOXIFENE], the outcome (in the assay filed under Homo sapiens; in assay [1]; in assay [2]) was inactive. Also, the Ki in assay [3] worked out at 11.8 µM.

With `CC(C)C[C@@H]1NC(=O)[C@@H]2CCCN2C(=O)[C@H](C(C)C)NC(=O)[C@H](Cc2c[nH]c3ccccc23)NC(=O)[C@@H](NC(=O)[C@H](Cc2ccccc2)NC(=O)[C@H](CCC(=O)O)NC(=O)[C@@H](NC(=O)[C@@H](NC(=O)[C@H](CCC(=O)O)NC(=O)[C@H](C)N)[C@@H](C)O)C(C)C)CSSC[C@@H](C(N)=O)NC(=O)[C@H](C(C)C)NC(=O)[C@H](CCC(N)=O)NC(=O)[C@H](Cc2ccccc2)NC(=O)[C@H](Cc2ccc(O)cc2)NC(=O)[C@H](CO)NC1=O` (H-AETVEFCWVPLSYFQVC-NH2; disulfide 7-17), the outcome (in the assay filed under Homo sapiens; in assay [1]; in assay [4]; in assay [2]) was inactive. Besides, the Ki in assay [3] stood at 1.5 µM.

For `CSCC[C@@H]1NC(=O)[C@H](Cc2c[nH]cn2)NC(=O)[C@H](CO)NC(=O)[C@@H](NC(=O)[C@H](Cc2c[nH]c3ccccc23)NC(=O)[C@H](Cc2ccc(O)cc2)NC(C)=O)CSSC[C@@H](C(=O)N[C@@H](Cc2c[nH]c3ccccc23)C(=O)N[C@@H](CCCNC(=N)N)C(N)=O)NC(=O)[C@H](C(C)C)NC(=O)[C@H]([C@@H](C)O)NC(=O)[C@H]([C@@H](C)O)NC(=O)[C@H](Cc2ccc(O)cc2)NC(=O)[C@H](Cc2ccc(O)cc2)NC1=O` (Ac-YWCSHMYYTTVCWR-NH2; disulfide 3-12), the outcome (in the assay filed under Homo sapiens; in assay [1]; in assay [2]) was inactive. In addition, the Kd on Interleukin-11 was 0.14 µM. The Ki in assay [3] amounted to 0.3 µM.

Turning to `C[C@@H]1NC(=O)[C@H](CCCNC(=N)N)NC(=O)[C@H](CCCNC(=N)N)NC(=O)CNC(=O)[C@@H](N)CSSC[C@@H](C(N)=O)NC(=O)[C@H](CO)NC(=O)CNC(=O)CNC1=O` (H-CGRRAGGSC-NH2; disulfide 1-9), the result (in the assay filed under Homo sapiens; in assay [1]; in assay [4]; in assay [2]) was inactive. The Ki in assay [3] is greater than 28 µM.

Consider `C=C(CCCCC)[C@@H](O)[C@H](C)C(=O)N1C(=O)OC[C@@H]1C(C)C`, for which the outcome (in the assay filed under Homo sapiens; in assay [1]; in assay [4]; in assay [2]) was inactive. The Ki in assay [3] is greater than 28 µM.

With `CC(C)C[C@@H]1NC(=O)[C@H](CCC(=O)O)NC(=O)[C@H](Cc2ccccc2)NC(=O)[C@H](CCC(N)=O)NC(=O)[C@@H]2CCCN2C(=O)[C@H](Cc2c[nH]c3ccccc23)NC(=O)[C@H](C(C)C)NC(=O)[C@H](Cc2ccc(O)cc2)NC(=O)[C@@H](NC(=O)[C@H](Cc2ccccc2)NC(=O)[C@H](CCC(=O)O)NC(=O)[C@@H](NC(=O)[C@@H](NC(=O)[C@H](CCC(=O)O)NC(=O)[C@H](C)N)[C@@H](C)O)C(C)C)CSSC[C@@H](C(N)=O)NC(=O)[C@H](C(C)C)NC1=O` (H-AETVEFCYVWPQFELVC-NH2; disulfide 7-17), the Ki in assay [3] came to 0.31 µM.

Turning to `CC(C)C[C@@H]1NC(=O)[C@@H]2CCCN2C(=O)[C@H](CC(C)C)NC(=O)[C@H](Cc2c[nH]c3ccccc23)NC(=O)[C@@H](NC(=O)[C@H](Cc2ccccc2)NC(=O)[C@H](CCC(=O)O)NC(=O)[C@@H](NC(=O)[C@@H](NC(=O)[C@H](CCC(=O)O)NC(=O)[C@H](C)N)[C@@H](C)O)C(C)C)CSSC[C@@H](C(N)=O)NC(=O)[C@H](Cc2ccccc2)NC(=O)[C@H](Cc2ccc(O)cc2)NC(=O)[C@H](Cc2c[nH]c3ccccc23)NC(=O)[C@H](Cc2c[nH]cn2)NC(=O)[C@H](CO)NC1=O` (H-AETVEFCWLPLSHWYFC-NH2; disulfide 7-17), the outcome (in the assay listed under Homo sapiens; in assay [1]; in assay [4]; in assay [2]) was inactive. The Ki in assay [3] is 1.36 µM.

Take `CC(=O)N[C@H]1CSSC[C@@H](C(N)=O)NC(=O)[C@H](C(C)C)NC(=O)[C@H](Cc2ccc(O)cc2)NC(=O)[C@H](Cc2c[nH]c3ccccc23)NC(=O)[C@H](Cc2c[nH]c3ccccc23)NC(=O)[C@H](Cc2c[nH]cn2)NC(=O)[C@H](Cc2ccc(O)cc2)NC(=O)[C@@H]2CCCN2C(=O)[C@H](CCCCN)NC(=O)[C@H](Cc2c[nH]c3ccccc23)NC1=O` (Ac-CWKPYHWWYVC-NH2; disulfide 1-11): the Ki in assay [3] came out at 2.5 µM.

`CCCC[C@@H]1NC(=O)[C@H](Cc2c[nH]cn2)NC(=O)[C@H](CO)NC(=O)[C@@H](NC(=O)[C@H](Cc2c[nH]c3ccccc23)NC(=O)[C@H](Cc2ccc(O)cc2)NC(C)=O)CSSC[C@@H](C(=O)N[C@@H](Cc2c[nH]c3ccccc23)C(=O)N[C@@H](CCCNC(=N)N)C(N)=O)NC(=O)[C@H](C(C)C)NC(=O)[C@H]([C@@H](C)O)NC(=O)[C@H]([C@@H](C)O)NC(=O)[C@H](Cc2ccc(O)cc2)NC(=O)[C@H](Cc2ccc(O)cc2)NC1=O` (Ac-YWCSH[Nle]YYTTVCWR-NH2; disulfide 3-12): the Ki in assay [3] stood at 0.9 µM.

On to `CC[C@H](C)[C@@H]1NC(=O)[C@H](Cc2c[nH]cn2)NC(=O)[C@H](Cc2c[nH]cn2)NC(=O)[C@H](C)NC(=O)[C@@H](NC(=O)[C@H](Cc2ccccc2)NC(=O)[C@H](CCC(=O)O)NC(=O)[C@@H](NC(=O)[C@@H](NC(=O)[C@H](CCC(=O)O)NC(=O)[C@H](C)N)[C@@H](C)O)C(C)C)CSSC[C@@H](C(N)=O)NC(=O)[C@H](Cc2c[nH]c3ccccc23)NC(=O)[C@H](Cc2c[nH]c3ccccc23)NC(=O)[C@H](Cc2c[nH]c3ccccc23)NC(=O)[C@H](C)NC(=O)[C@H](Cc2ccc(O)cc2)NC1=O` (H-AETVEFCAHHIYAWWWC-NH2; disulfide 7-17), for which, in assay [3], the Ki was 2.4 µM.

`CSCC[C@@H]1NC(=O)[C@H](Cc2c[nH]cn2)NC(=O)[C@H](CO)NC(=O)[C@@H](NC(=O)[C@H](Cc2c[nH]c3ccccc23)NC(=O)[C@H](Cc2ccc(O)cc2)NC(C)=O)CSSC[C@@H](C(=O)N[C@@H](Cc2c[nH]c3ccccc23)C(N)=O)NC(=O)[C@H](C(C)C)NC(=O)[C@H]([C@@H](C)O)NC(=O)[C@H]([C@@H](C)O)NC(=O)[C@H](Cc2ccc(O)cc2)NC(=O)[C@H](Cc2ccc(O)cc2)NC1=O` (Ac-YWCSHMYYTTVCW-NH2; disulfide 3-12): the Ki in assay [3] is greater than 28 µM.

For `CC(C)[C@H](NC(=O)[C@@H](NC(=O)[C@H](CCC(N)=O)NC(=O)[C@H](C)N)[C@@H](C)O)C(=O)N[C@@H](CCC(N)=O)C(=O)N[C@@H](Cc1ccccc1)C(=O)N[C@@H](Cc1ccc(O)cc1)C(=O)N[C@@H](Cc1c[nH]c2ccccc12)C(=O)N[C@H]1CSSC[C@@H](C(=O)N[C@@H](Cc2c[nH]c3ccccc23)C(=O)N[C@@H](CCCNC(=N)N)C(N)=O)NC(=O)[C@H](C(C)C)NC(=O)[C@H]([C@@H](C)O)NC(=O)[C@H]([C@@H](C)O)NC(=O)[C@H](Cc2ccc(O)cc2)NC(=O)[C@H](Cc2ccc(O)cc2)NC(=O)[C@H](CC[S+](C)[O-])NC(=O)[C@H](Cc2c[nH]cn2)NC(=O)[C@H](CO)NC1=O` (some centres not stated) (H-AQTVQFYWCSH[Met(O)]YYTTVCWR-NH2; disulfide 9-18), the Ki in assay [3] came to 0.32 µM.

Consider `CSCC[C@@H]1NC(=O)[C@H](Cc2c[nH]cn2)NC(=O)[C@H](CO)NC(=O)[C@@H](NC(C)=O)CSSC[C@@H](C(=O)N[C@@H](Cc2c[nH]c3ccccc23)C(=O)N[C@@H](CCCNC(=N)N)C(N)=O)NC(=O)[C@H](C(C)C)NC(=O)[C@H]([C@@H](C)O)NC(=O)[C@H]([C@@H](C)O)NC(=O)[C@H](Cc2ccc(O)cc2)NC(=O)[C@H](Cc2ccc(O)cc2)NC1=O` (Ac-CSHMYYTTVCWR-NH2; disulfide 1-10), for which, in assay [3], the Ki was greater than 28 µM.

For the molecule `CSCC[C@@H]1NC(=O)[C@H](Cc2c[nH]cn2)NC(=O)[C@H](CO)NC(=O)[C@@H](NC(=O)[C@H](Cc2c[nH]c3ccccc23)NC(=O)[C@H](Cc2ccc(O)cc2)NC(=O)[C@H](Cc2ccccc2)NC(=O)[C@H](CCC(N)=O)NC(C)=O)CSSC[C@@H](C(=O)N[C@@H](Cc2c[nH]c3ccccc23)C(=O)N[C@@H](CCCNC(=N)N)C(N)=O)NC(=O)[C@H](C(C)C)NC(=O)[C@H]([C@@H](C)O)NC(=O)[C@H]([C@@H](C)O)NC(=O)[C@H](Cc2ccc(O)cc2)NC(=O)[C@H](Cc2ccc(O)cc2)NC1=O` (Ac-QFYWCSHMYYTTVCWR-NH2; disulfide 5-14), the Ki in assay [3] is 0.27 µM.
